Tests used:
[1] = Stability in human plasma with protease inhibitor cocktail and individual amidase/esterase inhibitors; type: in vitro ADME
Experimental: Plasma Preparation. Whole blood was centrifuged at 1174×g for 30 min. Aliquots of the supernatant were then transferred to 5 mL centrifuge tubes.
Stability of COMPOUND A in Human and Rat Plasma (circulating enzymes) in the Presence of Protease Inhibitor Cocktail. COMPOUND A was added to plasma with and without protease inhibitor cocktail and incubated to study inhibition of test article (COMPOUND A) degradation. […] Plasma with and without inhibitor cocktail was aliquoted into 1.5 mL tubes to a volume of 950 μL, then preincubated for 15 min. An aliquot (50 μL) of test article stock solution was added to plasma with and without inhibitor and tubes were vortexed then incubated at 37° C. Degradation began with the addition of test article. Aliquots (50 μL) were taken at 0, 15, 30, 60, and 120 min after being vortexed and were quenched in 150 μL acetonitrile/0.1% formic acid solution and briefly vortexed then immediately frozen at −80° C. Stability was determined by measuring loss of parent compound using LC/MS/MS methods. Each exposure condition and time point were done in triplicate.
Stability of COMPOUND A in Human and Rat Plasma (circulating enzymes) in the Presence of Individual Protease Inhibitors. In addition to using a cocktail of protease inhibitors, individual inhibitors were used in plasma. […] Stability was determined by measuring loss of parent compound using LC/MS/MS methods. […]

in vivo = details: beagle, dog, plasma, po, 80 mg/kg

Row | SMILES | degradation accounted for by esterase and amidase enzymes ([1]; fresh human and rat plasma with amidase and esterase inhibitors) | Human proteolytic activity relative to rat proteolytic activity ([1]; plasma, 60 min incubation) | AUC(0-inf) (in vivo; female) | AUC(0-t) (in vivo; female) | Cmax (in vivo; female) | MRT inf (in vivo; female) | MRT last (in vivo; female) | Tmax (in vivo; female) | half-life (in vivo; female) | AUC(0-inf) (in vivo; male) | AUC(0-t) (in vivo; male) | Cmax (in vivo; male) | MRT inf (in vivo; male) | MRT last (in vivo; male) | Tmax (in vivo; male) | half-life (in vivo; male)
1 | CCOc1ccccc1OC[C@@H]1CN(C(=O)OC(C)OC(=O)[C@@H](N)C(C)C)CCO1 (stereo partly shown) [COMPOUND A] | ~100% | about 3 fold | – | – | – | – | – | – | – | – | – | – | – | – | – | –
2 | CCOc1ccccc1OC[C@@H]1CN(C(=O)OC(OC(=O)[C@H](N)C(C)C)C(C)C)CCO1 (stereo partly shown) [COMPOUND C] | – | – | 591 ng·h/mL | 572 ng·h/mL | 308 ng/mL | 4.78 h | 3.16 h | 30 min | 284 min | 1200 ng·h/mL | 1190 ng·h/mL | 775 ng/mL | 2.8 h | 2.58 h | 30 min | 176 min

Source: US20240343699A1, “DERIVATIVES OF SUBSTITUTED MORPHOLINES AND USES THEREOF” (Supernus Pharmaceuticals, Inc., priority 2023, published 2024)
